Source: patent publication US20010049372A1, “Antiviral nucleoside analogues” (BioChem Pharma Inc., priority 1998, published 2001)
Where two headings read alike, the source gives them in different places.

Tests used:
HIV-1macBAL = test: Anti-HIV-1 assay, dual tropic strain (p24); assay type: cell-based; conditions: determined by p24
Protocol: (§1) ANTIVIRAL ASSAYS. The anti-HIV-1 activity of the compound A (−) were assessed by employing HIV-1IIIB in a variety of cell types as previously described (Gu et al., 1992, 1994, 1999; Rando et al., 1995; Salomon et al., 1994). Briefly, cells were incubated with virus at a multiplicity of infection (MOI) of 0.005 for T cell assays and an MOI of 0.5 for monocytic cell assays for 3 hrs. Unbound virus was then removed by washing the cells, followed by seeding the cells into a 96-well plate. The infected cells were cultured in the presence of a serial concentrations of the test compound for 5-7 days. The anti-HIV-1 efficacy was determined by testing for HIV-1 RT activity or p24 level in the cell culture supernatants. All assays were performed in duplicate. Zidovudine and/or lamivudine were used as controls in each experiment.
Furthermore, antiretroviral activity of the compound A (−) was also assessed using different types of HIV-1 strains. […]

K65R = test: Recombinant drug resistant HIV-1 variants (RT activity); assay type: cell-based; conditions: Human immunodeficiency virus 1
Protocol: as §1
Recombinant HIV-1 variants were prepared by introducing the designed mutations into HXB2-D by site-directed mutagenesis as described (Gu et al. 1992, 1994). The virus stocks were prepared by transfecting MT-4 cells with infectious viral DNA constructs. Antiviral activity of the compound A (−) was evaluated as described in example 10.

[1] = Preliminary pharmacokinetic study in male adult rats; assay type: in vivo; conditions: rat; for half-life / AUC / Cmax: male, plasma; for AUC: read-out: AUC; for Cmax: read-out: Cmax
Protocol: The bioavailability of the compounds were evaluated in male adult rats dosed intravenously through the tail vein (5 mg/kg) and orally (20 mg/kg). The plasma samples were collected at 2, 5, 15, 30, 60, 90, 120 and 240 minutes after intravenous dosing and 5, 15, 30, 60, 90, 120, 240 and 360 minutes after oral dosing.
Blood samples (1 ml) were collected from the rat tails into a vacutainer containing EDTA (3 ml) for both iv and po administrations. Plasma samples were prepared by centrifugation at 2000 ×g for 15 minutes at 4° C.
Plasma samples (diluted to 1 ml with water) were loaded onto the Abselut Nexus sorbent (# 1210-3100 ) and drawn through under low vacuum (approximately 5′′ Hg). One milliliter of deionized water was added to the sorbent and drawn through under vacuum. The extraction column was dried for 1 minute using a high vacuum (>10′′ Hg). One milliliter of methanol was added to the Abselut Nexus column and the eluent was collected at 1-2 ml/min. The eluent was evaporated to dryness using a Speed Vac, and the samples were reconstituted in 120 μl H2O; 100 μl was used for injection.

[2] = tested on: Zidovudine^R/Lamivudine^R (3) clinical HIV-1 isolates (third group of Table 7); test: microbe, parasite or virus in culture; assay type: cell-based
Protocol: as §1, with “The anti-HIV-1 activity of the compound A (−) were assessed by employing HIV-1IIIB in a variety of cell types as previously described (Gu et al., 1992, 1994, 1999; Rando et al., 1995; Salomon et al., 1994).” left out
Clinical strains were isolated from PBMCs of HIV-1 infected individuals through co-culture with PBMCs from normal dornors.

HepG-2 = test: Cellular toxicity by [3H]-thymidine uptake; assay type: cell-based; conditions: Table 4; 72 hrs
How it was run: (§2)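 Cells plated at 1-2×10^3/well, pre-incubated 24 h, then exposed 72 h to 10-fold serial compound dilutions (10^−4 M to 10^−10 M). [3H]-thymidine was added for the final 18 h and DNA incorporation counted after hypotonic lysis and harvesting. CC50 derived from cpm relative to untreated controls.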

Molt-4 = test: Cellular toxicity by [3H]-thymidine uptake; assay type: cell-based; conditions: Table 14; 72 hrs; read-out: CC50 (μM) [^3H]TTP incorporation in: Molt4
How it was run: as §2

HT1080 = test: Cellular toxicity by [3H]-thymidine uptake; assay type: cell-based; conditions: Table 4; 72 hrs
How it was run: as §2

HSF = test: Cellular toxicity by [3H]-thymidine uptake; assay type: cell-based; conditions: Table 14; 72 hrs; read-out: CC50 (μM) [^3H]TTP incorporation in: HSF
How it was run: as §2

[3] = Human immunodeficiency virus 1, PBMC, PBMCs
[4] = Human immunodeficiency virus 1, m/m cells
[5] = Human immunodeficiency virus 1, read-out: EC50 (μM), mean EC50 values
[6] = Human immunodeficiency virus 1, read-out: EC50 (μM), ranges of EC50s of the isolates in the same group

| SMILES | EC50 (HIV-1macBAL; [3]) | EC50 (HIV-1macBAL; [4]) | EC50 (K65R) | half-life ([1]; iv 5 mg/kg) | AUC ([1]; iv 5 mg/kg) | Cmax ([1]; iv 5 mg/kg) | half-life ([1]; oral 20 mg/kg) | AUC ([1]; oral 20 mg/kg) | Cmax ([1]; oral 20 mg/kg) | Oral BA (%) ([1]; oral 20 mg/kg) | EC50 [2, 5] | EC50 [2, 6] | CC50 (μM) [^3H-]TTP incorporation in: HepG2 (HepG-2) | CC50 (Molt-4) | CC50 (μM) [^3H-]TTP incorporation in: HT1080 (HT1080) | CC50 (HSF) |
| --- | --- | --- | --- | --- | --- | --- | --- | --- | --- | --- | --- | --- | --- | --- | --- | --- |
| Nc1nc(NC2CC2)c2ncn([C@H]3CO[C@@H](CO)O3)c2n1 [Compound A (-), (−)-(2R,4R)-2-hydroxymethyl-4-(2′-amino-6′-cyclopropylamino-purine-9′-yl)-1,3-dioxolane] | 4140 nM | 22 nM | 1030 nM | 22.2 min | 4740 ng·h/mL | 14300 ng/mL | 38.4 min | 8640 ng·h/mL | 4200 ng/mL | 45.56% | 0.19 µM | 0.066 to 0.33 µM |  |  |  |  |
| Nc1ccn([C@@H]2CS[C@H](CO)O2)c(=O)n1 [Lamivudine, lamivudine] |  |  | 4310 nM |  |  |  |  |  |  |  |  |  | 350/100 | > 100 µM | >500/100 |  |
| Cc1cn([C@H]2C[C@H](N=[N+]=[N-])[C@@H](CO)O2)c(=O)[nH]c1=O [Zidovudine, zidovudine] | 43 nM | < 1.1 nM |  |  |  |  |  |  |  |  | 0.83 µM | 0.25 to 1.74 µM |  |  |  | > 10 µM |
